The text below walks through data of paper PMC8920385, “Design, synthesis and biological evaluation of a series of dianilinopyrimidines as EGFR inhibitors” (Journal of Enzyme Inhibition and Medicinal Chemistry, 2022).

The subject of one data set is PC-3 cells. Nature of the data set: Cytotoxicity evaluation (MTT assay), PC-3. It is filed as cell-based. The note with it: Homo sapiens, mean ± SD of three replicates. For orientation: Tetrazolium assays rely on reduction of a dye to a coloured formazan, in cell work by metabolically active cells.
The subject of a further data set is L02 cells. In words: Cytotoxicity evaluation (MTT assay), L02 normal cells. Particulars: Homo sapiens, L02, read-out: IC50 L02.
The target of data set [1] is T1, wild type EGFR tyrosine kinase (EGFR^wt) (Homo sapiens, UniProt P00533).
T1 construct: purchased PTM Bio; Co., Ltd
Nature of the data set: In vitro EGFR^wt-TK assay (ELISA). It is filed as biochemical. Particulars: mean ± SD of three replicates; for inhibition at 1 µM: read-out: EGFR^wt-TK inhibition rate; for inhibition at 1 µM / EGFR^wt-TK inhibition rate: 1 μM.

The subject of a further data set is HepG2 cells. Nature of the data set: Cytotoxicity evaluation (MTT assay), HepG2. It is filed as cell-based. The note with it: Homo sapiens, mean ± SD of three replicates.
Another data set has as its system A549 cells. In words: Cytotoxicity evaluation (MTT assay), A549. It is filed as cell-based. The note with it: Homo sapiens, mean ± SD of three replicates.

T1 sequence (P00533 25-1210): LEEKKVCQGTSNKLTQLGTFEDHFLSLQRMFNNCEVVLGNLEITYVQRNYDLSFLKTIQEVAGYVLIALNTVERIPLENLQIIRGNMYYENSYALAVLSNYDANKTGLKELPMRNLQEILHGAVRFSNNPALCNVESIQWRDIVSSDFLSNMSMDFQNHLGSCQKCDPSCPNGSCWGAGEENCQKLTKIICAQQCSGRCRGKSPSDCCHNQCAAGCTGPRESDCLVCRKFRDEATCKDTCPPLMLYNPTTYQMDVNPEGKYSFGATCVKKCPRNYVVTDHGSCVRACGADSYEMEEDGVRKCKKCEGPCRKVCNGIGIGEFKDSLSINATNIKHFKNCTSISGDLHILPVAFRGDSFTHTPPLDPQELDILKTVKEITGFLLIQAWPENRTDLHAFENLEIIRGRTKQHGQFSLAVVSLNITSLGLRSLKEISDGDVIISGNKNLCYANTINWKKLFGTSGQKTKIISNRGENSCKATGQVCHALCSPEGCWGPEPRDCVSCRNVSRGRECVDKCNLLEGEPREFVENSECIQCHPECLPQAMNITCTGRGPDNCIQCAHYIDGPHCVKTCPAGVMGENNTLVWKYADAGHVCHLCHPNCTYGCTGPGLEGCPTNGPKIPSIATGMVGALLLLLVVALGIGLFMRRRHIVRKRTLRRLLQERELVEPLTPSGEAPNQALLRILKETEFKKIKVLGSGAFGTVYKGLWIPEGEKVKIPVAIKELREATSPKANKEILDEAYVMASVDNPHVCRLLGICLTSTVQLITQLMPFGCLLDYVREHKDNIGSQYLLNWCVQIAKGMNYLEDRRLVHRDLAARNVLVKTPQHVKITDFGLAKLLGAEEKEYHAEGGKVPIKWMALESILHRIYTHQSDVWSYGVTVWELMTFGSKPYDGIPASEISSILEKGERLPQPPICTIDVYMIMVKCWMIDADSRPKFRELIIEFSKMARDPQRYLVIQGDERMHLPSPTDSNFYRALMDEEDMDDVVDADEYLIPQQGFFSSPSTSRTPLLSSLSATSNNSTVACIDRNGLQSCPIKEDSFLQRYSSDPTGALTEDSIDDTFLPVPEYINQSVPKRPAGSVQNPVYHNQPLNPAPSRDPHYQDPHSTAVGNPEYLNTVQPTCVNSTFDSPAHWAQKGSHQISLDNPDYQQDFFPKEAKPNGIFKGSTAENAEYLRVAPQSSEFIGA
Experimental for L02 cells: Three tumour cells with high expression of EGFR^wt were used to test the antitumor activity of the compounds including, A549 (Human non-small-cell lung cancer cell line) cells, PC-3 (Human prostate cancer cell line) cells, and HepG2 (Human hepatocellular carcinomas cell line) cells. They were all purchased from the Shanghai Cell Bank of the Chinese Academy of Sciences. L02 (normal human liver cell line) cells were also used to evaluate the cytotoxicity. […] The IC50 values were calculated from the dose − response curve under Graph-Pad Prism.

`CNC(=O)c1ccsc1Nc1nc(Nc2ccc(NC(=O)c3ccc(OC)cc3)cc2)ncc1C(F)(F)F` [4a, 2-{2-[4-(4-Methoxy-benzoylamino)-phenylamino]-5-trifluoromethyl-pyrimidin-4-ylamino}-thiophene-3-carboxylic acid methylamide] registered a melting point above 250 °C. Further, the IC50 in the data set with PC-3 cells amounted to 12.3 ± 0.89 µM. The IC50 in the data set with L02 cells was above 40 µM. The inhibition at 1 µM in data set [1] is 31.6 ± 3.27%. In the data set on HepG2 cells, this compound gave an IC50 of 11.5 ± 0.77 µM. The IC50 in the data set with A549 cells was determined as 9.32 ± 0.68 µM.
`CNC(=O)c1ccsc1Nc1nc(Nc2ccc(NC(=O)c3ccccc3F)cc2)ncc1C(F)(F)F` [4b, 2-{2-[4-(2-Fluoro-benzoylamino)-phenylamino]-5-trifluoromethyl-pyrimidin-4-ylamino}-thiophene-3-carboxylic acid methylamide] yielded a melting point of 224.8 to 226.3 °C. Half-maximal inhibition in the data set with PC-3 cells (IC50) was put at 7.81 ± 0.53 µM. Further, in the data set on L02 cells, the IC50 was above 40 µM. For the same compound, in data set [1], the “EGFR^wt-TK inhibition rate” value is recorded as 52.08 ± 1.93%, the inhibition at 1 µM is above 50% and it took 0.89 ± 0.12 µM to reach half-maximal inhibition (IC50). Also, the IC50 in the data set with HepG2 cells stood at 7.62 ± 0.46 µM. Moreover, in the data set on A549 cells, the IC50 was found to be 4.33 ± 0.59 µM.
For the compound `CNC(=O)c1ccsc1Nc1nc(Nc2ccc(NC(=O)c3ccc(F)cc3)cc2)ncc1C(F)(F)F` [4d, 2-{2-[4-(4-Fluoro-benzoylamino)-phenylamino]-5-trifluoromethyl-pyrimidin-4-ylamino}-thiophene-3-carboxylic acid methylamide], the melting point lay within 233.5 to 235.3 °C. In the data set with PC-3 cells, this compound had an IC50 above 20 µM. In addition, the IC50 with L02 cells is above 40 µM. The inhibition at 1 µM in data set [1] came out at 7.59 ± 0.25%. Also, the IC50 in the data set with HepG2 cells is above 20 µM. The compound also gave an IC50 in the data set on A549 cells above 20 µM.
Regarding `CNC(=O)c1ccsc1Nc1nc(Nc2ccc(NC(=O)c3ccc(F)c(F)c3)cc2)ncc1C(F)(F)F` [4e, 2-{2-[4-(3,4-Difluoro-benzoylamino)-phenylamino]-5-trifluoromethyl-pyrimidin-4-ylamino}-thiophene-3-carboxylic acid methylamide], the melting point was in the range of 244.3 to 245.9 °C. For the same compound, the IC50 in the data set on PC-3 cells is above 20 µM. Moreover, the IC50 in the data set with L02 cells was above 40 µM. Also, the inhibition at 1 µM in data set [1] is 27.9 ± 1.34%. The compound also displayed an IC50 in the data set with HepG2 cells above 20 µM. In the data set with A549 cells, the IC50 was above 20 µM.
`CNC(=O)c1ccsc1Nc1nc(Nc2ccc(NC(=O)c3cccc(C(F)(F)F)c3)cc2)ncc1C(F)(F)F` [4f, 2-{5-Trifluoromethyl-2-[4-(3-trifluoromethyl-benzoylamino)-phenylamino]-pyrimidin-4-ylamino}-thiophene-3-carboxylic acid methylamide] returned a melting point above 250 °C. The compound also returned an IC50 in the data set with PC-3 cells of 8.51 ± 0.64 µM. For the same compound, in the data set on L02 cells, the IC50 is above 40 µM. Further, in data set [1], the inhibition at 1 µM is 30.8 ± 1.09%. The same compound returned an IC50 in the data set on HepG2 cells of 8.36 ± 0.49 µM. This compound also returned an IC50 in the data set on A549 cells of 6.14 ± 0.78 µM.
`CCCNc1c(Nc2ccc(Nc3ncc(C(F)(F)F)c(Nc4sccc4C(=O)NC)n3)cc2)c(=O)c1=O` [6a, 2-{2-[4-(3,4-Dioxo-2-propylamino-cyclobut-1-enylamino)-phenylamino]-5-trifluoromethyl-pyrimidin-4-ylamino}-thiophene-3-carboxylic acid methylamide] returned a melting point above 250 °C. In addition, in the data set with PC-3 cells, the IC50 was above 20 µM. In addition, in the data set on L02 cells, the IC50 is above 40 µM. Moreover, the inhibition at 1 µM in data set [1] stood at 15.3 ± 0.48%. Further, the IC50 in the data set on HepG2 cells was above 20 µM. Further, in the data set on A549 cells, the IC50 was above 20 µM.
For the compound `CCCCCCNc1c(Nc2ccc(Nc3ncc(C(F)(F)F)c(Nc4sccc4C(=O)NC)n3)cc2)c(=O)c1=O` [6b, 2-{2-[4-(2-Hexylamino-3,4-dioxo-cyclobut-1-enylamino)-phenylamino]-5-trifluoromethyl-pyrimidin-4-ylamino}-thiophene-3-carboxylic acid methylamide], the melting point is above 250 °C. For the same compound, the IC50 in the data set with PC-3 cells is above 20 µM. Moreover, in the data set on L02 cells, the IC50 was above 40 µM. Also, in data set [1], the inhibition at 1 µM turned out to be 17.4 ± 0.32%. Besides, the IC50 with HepG2 cells was above 20 µM. Further, in the data set with A549 cells, the IC50 is above 20 µM.
On to `CNC(=O)c1ccsc1Nc1nc(Nc2ccc(Nc3c(NCCO)c(=O)c3=O)cc2)ncc1C(F)(F)F` [6c, 2–(2-{4-[2-(2-Hydroxy-ethylamino)-3,4-dioxo-cyclobut-1-enylamino]-phenylamino}-5-trifluoromethyl-pyrimidin-4-ylamino)-thiophene-3-carboxylic acid methylamide], for which the melting point was above 250 °C. The IC50 in the data set with PC-3 cells was above 20 µM. In the data set with L02 cells, the IC50 is above 40 µM. Besides, in data set [1], the inhibition at 1 µM was determined as 16.6 ± 0.21%. The same compound came in with an IC50 in the data set with HepG2 cells above 20 µM. Besides, the IC50 in the data set on A549 cells was above 20 µM.
Regarding `CNC(=O)c1ccsc1Nc1nc(Nc2ccc(Nc3c(NC(C)C)c(=O)c3=O)cc2)ncc1C(F)(F)F` [6d, 2-{2-[4-(2-Isopropylamino-3,4-dioxo-cyclobut-1-enylamino)-phenylamino]-5-trifluoromethyl-pyrimidin-4-ylamino}-thiophene-3-carboxylic acid methylamide], the melting point was above 250 °C. For the same compound, the IC50 with PC-3 cells is above 20 µM. In addition, the IC50 in the data set with L02 cells was above 40 µM. The inhibition at 1 µM in data set [1] is 29.1 ± 1.03%. The compound also gave an IC50 with HepG2 cells of 14.1 ± 1.28 µM. The compound further yielded an IC50 in the data set with A549 cells of 10.1 ± 1.96 µM.
On to `CNC(=O)c1ccsc1Nc1nc(Nc2ccc(Nc3c(NC4CCCC4)c(=O)c3=O)cc2)ncc1C(F)(F)F` [6e, 2-{2-[4-(2-Cyclopentylamino-3,4-dioxo-cyclobut-1-enylamino)-phenylamino]-5-trifluoromethyl-pyrimidin-4-ylamino}-thiophene-3-carboxylic acid methylamide], for which the melting point was above 250 °C. In addition, half-maximal inhibition in the data set on PC-3 cells (IC50) was put at 9.24 ± 0.86 µM. Moreover, in the data set on L02 cells, the IC50 is above 40 µM. Besides, in data set [1], the “EGFR^wt-TK inhibition rate” value amounted to 53.17 ± 3.05%, the inhibition at 1 µM was above 50% and half-maximal inhibition (IC50) was put at 0.74 ± 0.1 µM. The IC50 with HepG2 cells turned out to be 9 ± 0.78 µM. The compound further returned an IC50 with A549 cells of 7.14 ± 0.92 µM.
`CNC(=O)c1ccsc1Nc1nc(Nc2ccc(Nc3c(NC4CCCCC4)c(=O)c3=O)cc2)ncc1C(F)(F)F` [6f, 2-{2-[4-(2-Cyclohexylamino-3,4-dioxo-cyclobut-1-enylamino)-phenylamino]-5-trifluoromethyl-pyrimidin-4-ylamino}-thiophene-3-carboxylic acid methylamide] came in with a melting point above 250 °C. For the same compound, in the data set on PC-3 cells, the IC50 is above 20 µM. Further, the IC50 in the data set with L02 cells is above 40 µM. In data set [1], the inhibition at 1 µM turned out to be 34.1 ± 1.29%. In addition, in the data set with HepG2 cells, the IC50 was above 20 µM. For the same compound, the IC50 in the data set on A549 cells is 18.1 ± 2.45 µM.
`CNC(=O)c1ccsc1Nc1nc(Nc2ccc(Nc3c(NC4CCC(O)CC4)c(=O)c3=O)cc2)ncc1C(F)(F)F` (stereo not drawn) [6g, 2-(2-{4-[2–(4-Hydroxy-cyclohexylamino)-3,4-dioxo-cyclobut-1-enylamino]-phenylamino}-5-trifluoromethyl-pyrimidin-4-ylamino)-thiophene-3-carboxylic acid methylamide] came in with a melting point above 250 °C. The compound further gave a 50% inhibitory concentration (IC50) in the data set with PC-3 cells above 20 µM. In the data set with L02 cells, the IC50 is above 40 µM. Besides, in data set [1], the inhibition at 1 µM was determined as 9.27 ± 0.25%. This compound also displayed an IC50 in the data set on HepG2 cells above 20 µM. Besides, in the data set on A549 cells, the IC50 was above 20 µM.
`CNC(=O)c1ccsc1Nc1nc(Nc2ccc(Nc3c(NC4CCN(C)CC4)c(=O)c3=O)cc2)ncc1C(F)(F)F` [6h, 2-(2-{4-[2-(1-Methyl-piperidin-4-ylamino)-3,4-dioxo-cyclobut-1-enylamino]-phenylamino}-5-trifluoromethyl-pyrimidin-4-ylamino)-thiophene-3-carboxylic acid methylamide] had a melting point above 250 °C. Further, the IC50 with PC-3 cells is above 20 µM. Besides, the IC50 in the data set on L02 cells is above 40 µM. The inhibition at 1 µM in data set [1] worked out at 10.6 ± 0.93%. Moreover, in the data set with HepG2 cells, the IC50 is above 20 µM. Also, the IC50 in the data set with A549 cells was above 20 µM.
In the case of `CNC(=O)c1ccsc1Nc1nc(Nc2ccc(Nc3c(NCCNC(=O)OC(C)(C)C)c(=O)c3=O)cc2)ncc1C(F)(F)F` [6i, [2-(2-{4-[4-(3-Methylcarbamoyl-thiophen-2-ylamino)-5-trifluoromethyl-pyrimidin-2-ylamino]-phenylamino}-3,4-dioxo-cyclobut-1-enylamino)-ethyl]-carbamic acid tert-butyl ester], the melting point was above 250 °C. In the data set on PC-3 cells, this compound gave an IC50 of 5.33 ± 0.47 µM. Moreover, the IC50 with L02 cells was above 40 µM. In data set [1], the “EGFR^wt-TK inhibition rate” value was 57.37 ± 1.82%, the inhibition at 1 µM is above 50% and the IC50 is 0.66 ± 0.13 µM. The midpoint of inhibition with HepG2 cells, the IC50, lay at 5.24 ± 0.51 µM. In the data set with A549 cells, this compound showed an IC50 of 3.11 ± 0.48 µM.
On to `CCC(=O)NCCNc1c(Nc2ccc(Nc3ncc(C(F)(F)F)c(Nc4sccc4C(=O)NC)n3)cc2)c(=O)c1=O` [8a, 2-(2-{4-[3,4-Dioxo-2-(2-propionylamino-ethylamino)-cyclobut-1-enylamino]-phenylamino}-5-trifluoromethyl-pyrimidin-4-ylamino)-thiophene-3-carboxylic acid methylamide], for which the melting point is above 250 °C. This compound had an IC50 in the data set with PC-3 cells above 20 µM. The IC50 in the data set with L02 cells is above 40 µM. For the same compound, the inhibition at 1 µM in data set [1] was found to be 6.86 ± 0.11%. The IC50 with HepG2 cells was above 20 µM. In addition, the IC50 in the data set with A549 cells is above 20 µM.
`CNC(=O)c1ccsc1Nc1nc(Nc2ccc(Nc3c(NCCNC(=O)C(C)C)c(=O)c3=O)cc2)ncc1C(F)(F)F` [8b, 2-(2-{4-[2-(2-Isobutyrylamino-ethylamino)-3,4-dioxo-cyclobut-1-enylamino]-phenylamino}-5-trifluoromethyl-pyrimidin-4-ylamino)-thiophene-3-carboxylic acid methylamide] displayed a melting point above 250 °C. In addition, the IC50 in the data set on PC-3 cells is above 20 µM. Further, the IC50 with L02 cells is above 40 µM. In data set [1], the inhibition at 1 µM is 7.92 ± 0.54%. In the data set on HepG2 cells, the IC50 was above 20 µM. The IC50 in the data set with A549 cells was above 20 µM.

For orientation: IC50 means the point on the concentration scale where inhibition reaches its midpoint. Usually melting point stands for the temperature, or range, at which the solid turns liquid. For orientation: inhibition means the percentage by which the read-out fell short of the control.
